Results as given in PubChem BioAssay (NCI).
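At the GI50, growth is halved. At the TGI there is no net growth.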

Tests used:
Assay in all cases: NCI-60 cell line screen, 384-well format
COLO 205 colon = system: COLO 205 colon
OVCAR-5 ovarian = system: OVCAR-5 ovarian
UO-31 renal = system: UO-31 renal
HL-60(TB) leukemia = system: HL-60(TB) leukemia
RXF 393 renal = system: RXF 393 renal
SW-620 colon = system: SW-620 colon
HCT-15 colon = system: HCT-15 colon
TK-10 renal = system: TK-10 renal
HCC-2998 colon = system: HCC-2998 colon
KM12 colon = system: KM12 colon
T-47D breast = system: T-47D breast
MCF7 breast = system: MCF7 breast
SK-OV-3 ovarian = system: SK-OV-3 ovarian
LOX IMVI melanoma = system: LOX IMVI melanoma
CCRF-CEM leukemia = system: CCRF-CEM leukemia
SF-295 CNS = system: SF-295 CNS
NCI-H522 lung = system: NCI-H522 lung
SNB-19 CNS = system: SNB-19 CNS
MALME-3M melanoma = system: MALME-3M melanoma
M14 melanoma = system: M14 melanoma
SK-MEL-28 melanoma = system: SK-MEL-28 melanoma
MOLT-4 leukemia = system: MOLT-4 leukemia
SNB-75 CNS = system: SNB-75 CNS
MDA-MB-468 breast = system: MDA-MB-468 breast
A549 NSCLC = system: A549 NSCLC
HS 578T breast = system: HS 578T breast
IGROV1 ovarian = system: IGROV1 ovarian
NCI/ADR-RES ovarian = system: NCI/ADR-RES ovarian
ACHN renal = system: ACHN renal
DU-145 prostate = system: DU-145 prostate
NCI-H23 lung = system: NCI-H23 lung
NCI-H322M lung = system: NCI-H322M lung
OVCAR-4 ovarian = system: OVCAR-4 ovarian
HT29 colon = system: HT29 colon
RPMI-8226 leukemia = system: RPMI-8226 leukemia
MDA-MB-231 breast = system: MDA-MB-231 breast
OVCAR-3 ovarian = system: OVCAR-3 ovarian
SF-539 CNS = system: SF-539 CNS
A498 renal = system: A498 renal
PC-3 prostate = system: PC-3 prostate
K-562 leukemia = system: K-562 leukemia
SF-268 CNS = system: SF-268 CNS
NCI-H460 NSCLC = system: NCI-H460 NSCLC
NCI-H226 lung = system: NCI-H226 lung
EKVX NSCLC = system: EKVX NSCLC
SR leukemia = system: SR leukemia
HOP-62 NSCLC = system: HOP-62 NSCLC
SK-MEL-2 melanoma = system: SK-MEL-2 melanoma
786-0 renal = system: 786-0 renal
MDA-MB-435 melanoma = system: MDA-MB-435 melanoma
CAKI-1 renal = system: CAKI-1 renal
HCT-116 colon = system: HCT-116 colon
BT-549 breast = system: BT-549 breast
SK-MEL-5 melanoma = system: SK-MEL-5 melanoma
SN12C renal = system: SN12C renal
UACC-257 melanoma = system: UACC-257 melanoma
UACC-62 melanoma = system: UACC-62 melanoma
HOP-92 NSCLC = system: HOP-92 NSCLC
U251 glioblastoma = system: U251 glioblastoma

CC(C)=CCC/C(C)=C/CC/C(C)=C/CSc1ccccc1C(=O)O
GI50 (COLO 205 colon): > 100 µM | TGI (COLO 205 colon): > 100 µM | GI50 (OVCAR-5 ovarian): > 100 µM | TGI (OVCAR-5 ovarian): > 100 µM | GI50 (UO-31 renal): > 100 µM | TGI (UO-31 renal): > 100 µM | GI50 (HL-60(TB) leukemia): 83.7 µM | TGI (HL-60(TB) leukemia): > 100 µM | GI50 (RXF 393 renal): 70.4 µM | TGI (RXF 393 renal): > 100 µM | GI50 (SW-620 colon): > 100 µM | TGI (SW-620 colon): > 100 µM | GI50 (HCT-15 colon): 73.3 µM | TGI (HCT-15 colon): > 100 µM | GI50 (TK-10 renal): > 100 µM | TGI (TK-10 renal): > 100 µM | GI50 (HCC-2998 colon): > 100 µM | TGI (HCC-2998 colon): > 100 µM | GI50 (KM12 colon): > 100 µM | TGI (KM12 colon): > 100 µM | GI50 (T-47D breast): > 100 µM | TGI (T-47D breast): > 100 µM | GI50 (MCF7 breast): > 100 µM | TGI (MCF7 breast): > 100 µM | GI50 (SK-OV-3 ovarian): > 100 µM | TGI (SK-OV-3 ovarian): > 100 µM | GI50 (LOX IMVI melanoma): > 100 µM | TGI (LOX IMVI melanoma): > 100 µM | GI50 (CCRF-CEM leukemia): 45.2 µM | TGI (CCRF-CEM leukemia): > 100 µM | GI50 (SF-295 CNS): > 100 µM | TGI (SF-295 CNS): > 100 µM | GI50 (NCI-H522 lung): 16.2 µM | TGI (NCI-H522 lung): 43.6 µM | GI50 (SNB-19 CNS): > 100 µM | TGI (SNB-19 CNS): > 100 µM | GI50 (MALME-3M melanoma): > 100 µM | TGI (MALME-3M melanoma): > 100 µM | GI50 (M14 melanoma): > 100 µM | TGI (M14 melanoma): > 100 µM | GI50 (SK-MEL-28 melanoma): > 100 µM | TGI (SK-MEL-28 melanoma): > 100 µM | GI50 (MOLT-4 leukemia): 51.3 µM | TGI (MOLT-4 leukemia): > 100 µM | GI50 (SNB-75 CNS): > 100 µM | TGI (SNB-75 CNS): > 100 µM | GI50 (MDA-MB-468 breast): > 100 µM | TGI (MDA-MB-468 breast): > 100 µM | GI50 (A549 NSCLC): 90.1 µM | TGI (A549 NSCLC): > 100 µM | GI50 (HS 578T breast): > 100 µM | TGI (HS 578T breast): > 100 µM | GI50 (IGROV1 ovarian): > 100 µM | TGI (IGROV1 ovarian): > 100 µM | GI50 (NCI/ADR-RES ovarian): > 100 µM | TGI (NCI/ADR-RES ovarian): > 100 µM | GI50 (ACHN renal): > 100 µM | TGI (ACHN renal): > 100 µM | GI50 (DU-145 prostate): > 100 µM | TGI (DU-145 prostate): > 100 µM | GI50 (NCI-H23 lung): > 100 µM | TGI (NCI-H23 lung): > 100 µM | GI50 (NCI-H322M lung): > 100 µM | TGI (NCI-H322M lung): > 100 µM | GI50 (OVCAR-4 ovarian): > 100 µM | TGI (OVCAR-4 ovarian): > 100 µM | GI50 (HT29 colon): > 100 µM | TGI (HT29 colon): > 100 µM | GI50 (RPMI-8226 leukemia): 47.9 µM | TGI (RPMI-8226 leukemia): > 100 µM | GI50 (MDA-MB-231 breast): > 100 µM | TGI (MDA-MB-231 breast): > 100 µM | GI50 (OVCAR-3 ovarian): > 100 µM | TGI (OVCAR-3 ovarian): > 100 µM | GI50 (SF-539 CNS): > 100 µM | TGI (SF-539 CNS): > 100 µM | GI50 (A498 renal): > 100 µM | TGI (A498 renal): > 100 µM | GI50 (PC-3 prostate): > 100 µM | TGI (PC-3 prostate): > 100 µM | GI50 (K-562 leukemia): > 100 µM | TGI (K-562 leukemia): > 100 µM | GI50 (SF-268 CNS): > 100 µM | TGI (SF-268 CNS): > 100 µM | GI50 (NCI-H460 NSCLC): > 100 µM | TGI (NCI-H460 NSCLC): > 100 µM | GI50 (NCI-H226 lung): > 100 µM | TGI (NCI-H226 lung): > 100 µM | GI50 (EKVX NSCLC): > 100 µM | TGI (EKVX NSCLC): > 100 µM | GI50 (SR leukemia): 54.2 µM | TGI (SR leukemia): > 100 µM | GI50 (HOP-62 NSCLC): > 100 µM | TGI (HOP-62 NSCLC): > 100 µM | GI50 (SK-MEL-2 melanoma): > 100 µM | TGI (SK-MEL-2 melanoma): > 100 µM | GI50 ([…]-0 renal): > 100 µM | TGI (786-0 renal): > 100 µM | GI50 (MDA-MB-435 melanoma): > 100 µM | TGI (MDA-MB-435 melanoma): > 100 µM | GI50 (CAKI-1 renal): > 100 µM | TGI (CAKI-1 renal): > 100 µM | GI50 (HCT-116 colon): > 100 µM | TGI (HCT-116 colon): > 100 µM | GI50 (BT-549 breast): > 100 µM | TGI (BT-549 breast): > 100 µM | GI50 (SK-MEL-5 melanoma): > 100 µM | TGI (SK-MEL-5 melanoma): > 100 µM | GI50 (SN12C renal): > 100 µM | TGI (SN12C renal): > 100 µM | GI50 (UACC-257 melanoma): > 100 µM | TGI (UACC-257 melanoma): > 100 µM | GI50 (UACC-62 melanoma): > 100 µM | TGI (UACC-62 melanoma): > 100 µM | GI50 (HOP-92 NSCLC): > 100 µM | TGI (HOP-92 NSCLC): > 100 µM | GI50 (U251 glioblastoma): > 100 µM | TGI (U251 glioblastoma): > 100 µM
